# Where “and” joins values, the source holds several entries; their conditions need not be identical. Identical values can stand only once.
# Key:
# Histamine H3 = biological target: T1, Histamine H3 (Homo sapiens, UniProt Q9Y5N1); assay: Eurofins Panlabs panel, radioligand binding; settings: at 10 µM
# T1 construct: NIMH Psychoactive Drug Screening Program, University of North Carolina at Chapel Hill
# PRDM9 = PRDM9 (Homo sapiens, UniProt Q9NQV7); assay: DSF thermal stabilisation, PRDM selectivity and titration; format: binding
# Chain of PRDM9 (Q9NQV7 whole entry): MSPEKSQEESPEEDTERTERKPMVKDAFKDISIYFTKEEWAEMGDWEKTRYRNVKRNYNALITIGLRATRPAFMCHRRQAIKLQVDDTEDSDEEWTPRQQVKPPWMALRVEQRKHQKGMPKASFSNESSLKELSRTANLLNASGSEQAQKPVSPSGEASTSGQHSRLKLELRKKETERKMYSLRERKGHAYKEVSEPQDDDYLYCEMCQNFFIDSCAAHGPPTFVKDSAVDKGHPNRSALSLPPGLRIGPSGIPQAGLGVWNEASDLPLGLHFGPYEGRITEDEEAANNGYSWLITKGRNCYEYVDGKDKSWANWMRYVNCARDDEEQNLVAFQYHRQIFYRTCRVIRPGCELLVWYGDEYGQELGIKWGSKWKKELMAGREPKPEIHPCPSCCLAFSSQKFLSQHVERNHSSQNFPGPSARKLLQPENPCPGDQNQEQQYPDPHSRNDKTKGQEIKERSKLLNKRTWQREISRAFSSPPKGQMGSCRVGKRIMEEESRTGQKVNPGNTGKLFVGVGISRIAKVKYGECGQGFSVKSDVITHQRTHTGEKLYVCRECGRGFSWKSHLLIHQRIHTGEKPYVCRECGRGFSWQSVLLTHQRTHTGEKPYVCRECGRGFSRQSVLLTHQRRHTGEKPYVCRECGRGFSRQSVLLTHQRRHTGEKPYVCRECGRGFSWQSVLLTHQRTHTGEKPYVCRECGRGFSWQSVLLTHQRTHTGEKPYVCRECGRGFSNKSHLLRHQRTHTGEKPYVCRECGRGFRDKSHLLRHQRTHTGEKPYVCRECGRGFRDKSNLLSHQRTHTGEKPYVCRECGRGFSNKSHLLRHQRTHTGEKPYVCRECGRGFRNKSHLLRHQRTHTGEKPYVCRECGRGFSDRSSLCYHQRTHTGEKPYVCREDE
# Protocol: DSF measurements were performed as previously described[21] using a Light Cycler 480 II instrument from Roche Applied Science. […] Sypro Orange was purchased from Invitrogen as a 5000 × stock solution (concentration not specified by vendor) and was diluted 1:1000 to yield a 5 × working concentration. The temperature scan curves were fitted to a Boltzmann sigmoid function, and the Tm values were obtained from the midpoint of the transition.
# [1] = MRK-740 0.244141 uM, in the absence of SAM
# [2] = MRK-740 0.244141 uM, in the presence of 2 mM of SAM
# [3] = MRK-740 0.488281 uM, in the absence of SAM
# [4] = MRK-740 0.488281 uM, in the presence of 2 mM of SAM
# [5] = MRK-740 0.976563 uM, in the absence of SAM
# [6] = MRK-740 0.976563 uM, in the presence of 2 mM of SAM
# [7] = MRK-740 1.95312 uM, in the absence of SAM
# [8] = MRK-740 1.95312 uM, in the presence of 2 mM of SAM
# [9] = MRK-740 3.90625 uM, in the absence of SAM
# [10] = MRK-740 3.90625 uM, in the presence of 2 mM of SAM
# [11] = MRK-740 7.8125 uM, in the absence of SAM
# [12] = MRK-740 7.8125 uM, in the presence of 2 mM of SAM
# [13] = MRK-740 15.625 uM, in the absence of SAM
# [14] = MRK-740 15.625 uM, in the presence of 2 mM of SAM
# [15] = MRK-740 31.25 uM, in the absence of SAM
# [16] = MRK-740 31.25 uM, in the presence of 2 mM of SAM
# [17] = MRK-740 62.5 uM, in the absence of SAM
# [18] = MRK-740 62.5 uM, in the presence of 2 mM of SAM
# [19] = MRK-740 125 uM, in the absence of SAM
# [20] = MRK-740 125 uM, in the presence of 2 mM of SAM
# [21] = MRK-740 250 uM, in the absence of SAM
# [22] = MRK-740 250 uM, in the presence of 2 mM of SAM
# T1 sequence (Q9Y5N1 whole entry): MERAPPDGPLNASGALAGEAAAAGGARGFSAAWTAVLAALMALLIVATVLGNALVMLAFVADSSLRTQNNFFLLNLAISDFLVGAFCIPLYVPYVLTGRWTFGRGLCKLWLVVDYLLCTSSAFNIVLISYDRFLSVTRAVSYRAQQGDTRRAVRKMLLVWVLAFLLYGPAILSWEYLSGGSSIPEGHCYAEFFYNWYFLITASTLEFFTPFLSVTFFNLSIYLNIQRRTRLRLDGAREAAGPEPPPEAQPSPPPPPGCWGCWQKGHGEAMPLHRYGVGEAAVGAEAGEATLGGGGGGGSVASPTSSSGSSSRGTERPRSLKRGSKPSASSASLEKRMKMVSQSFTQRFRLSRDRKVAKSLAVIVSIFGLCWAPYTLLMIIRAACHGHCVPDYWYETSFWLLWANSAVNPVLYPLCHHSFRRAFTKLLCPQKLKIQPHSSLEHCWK
compound,measurement,setting,value
COc1cc(OC)cc(-c2noc(N3CCN(C)C4(CCN(c5ccnc(C)c5)CC4)C3)n2)c1 [MRK-740],Binding,Histamine H3,> 50%
same,"∆Tm, Average (n=3)",PRDM9; [1],-0.02041 ⁰C
same,"∆Tm, replicates",PRDM9; [1],0.1071 ⁰C and -0.1796 ⁰C and 0.01126 ⁰C
same,"∆Tm, Average (n=3)",PRDM9; [2],0.008307 ⁰C
same,"∆Tm, replicates",PRDM9; [2],0.03434 ⁰C and -0.02437 ⁰C and 0.01495 ⁰C
same,"∆Tm, Average (n=3)",PRDM9; [3],0.01061 ⁰C
same,"∆Tm, replicates",PRDM9; [3],0.0928 ⁰C and -0.07107 ⁰C and 0.01011 ⁰C
same,"∆Tm, Average (n=3)",PRDM9; [4],0.1496 ⁰C
same,"∆Tm, replicates",PRDM9; [4],0.1732 ⁰C and 0.04052 ⁰C and 0.2352 ⁰C
same,"∆Tm, Average (n=3)",PRDM9; [5],0.04508 ⁰C
same,"∆Tm, replicates",PRDM9; [5],0.1528 ⁰C and -0.2157 ⁰C and 0.1982 ⁰C
same,"∆Tm, Average (n=3)",PRDM9; [6],0.2255 ⁰C
same,"∆Tm, replicates",PRDM9; [6],0.2233 ⁰C and 0.03455 ⁰C and 0.4187 ⁰C
same,"∆Tm, Average (n=3)",PRDM9; [7],-0.08242 ⁰C
same,"∆Tm, replicates",PRDM9; [7],-0.00371 ⁰C and -0.4167 ⁰C and 0.1731 ⁰C
same,"∆Tm, Average (n=3)",PRDM9; [8],0.4191 ⁰C
same,"∆Tm, replicates",PRDM9; [8],0.4623 ⁰C and 0.3242 ⁰C and 0.4707 ⁰C
same,"∆Tm, Average (n=3)",PRDM9; [9],-0.01426 ⁰C
same,"∆Tm, replicates",PRDM9; [9],0.02232 ⁰C and -0.1544 ⁰C and 0.08926 ⁰C
same,"∆Tm, Average (n=3)",PRDM9; [10],0.7764 ⁰C
same,"∆Tm, replicates",PRDM9; [10],0.7056 ⁰C and 0.7972 ⁰C and 0.8264 ⁰C
same,"∆Tm, Average (n=3)",PRDM9; [11],0.1037 ⁰C
same,"∆Tm, replicates",PRDM9; [11],0.226 ⁰C and -0.09012 ⁰C and 0.1752 ⁰C
same,"∆Tm, Average (n=3)",PRDM9; [12],1.337 ⁰C
same,"∆Tm, replicates",PRDM9; [12],1.344 ⁰C and 1.221 ⁰C and 1.444 ⁰C
same,"∆Tm, Average (n=3)",PRDM9; [13],-0.1063 ⁰C
same,"∆Tm, replicates",PRDM9; [13],-0.01797 ⁰C and -0.3914 ⁰C and 0.09041 ⁰C
same,"∆Tm, Average (n=3)",PRDM9; [14],1.956 ⁰C
same,"∆Tm, replicates",PRDM9; [14],2.017 ⁰C and 1.819 ⁰C and 2.032 ⁰C
same,"∆Tm, Average (n=3)",PRDM9; [15],0.1387 ⁰C
same,"∆Tm, replicates",PRDM9; [15],0.3126 ⁰C and 0.00612 ⁰C and 0.09739 ⁰C
same,"∆Tm, Average (n=3)",PRDM9; [16],2.652 ⁰C
same,"∆Tm, replicates",PRDM9; [16],2.731 ⁰C and 2.527 ⁰C and 2.698 ⁰C
same,"∆Tm, Average (n=3)",PRDM9; [17],0.1127 ⁰C
same,"∆Tm, replicates",PRDM9; [17],0.2122 ⁰C and -0.02556 ⁰C and 0.1514 ⁰C
same,"∆Tm, Average (n=3)",PRDM9; [18],3.593 ⁰C
same,"∆Tm, replicates",PRDM9; [18],3.459 ⁰C and 3.608 ⁰C and 3.713 ⁰C
same,"∆Tm, Average (n=3)",PRDM9; [19],0.3345 ⁰C
same,"∆Tm, replicates",PRDM9; [19],0.254 ⁰C and 0.2924 ⁰C and 0.4572 ⁰C
same,"∆Tm, Average (n=3)",PRDM9; [20],4.481 ⁰C
same,"∆Tm, replicates",PRDM9; [20],4.418 ⁰C and 4.4008 ⁰C and 4.624 ⁰C
same,"∆Tm, Average (n=3)",PRDM9; [21],0.7417 ⁰C
same,"∆Tm, replicates",PRDM9; [21],0.7489 ⁰C and 0.7435 ⁰C and 0.7328 ⁰C
same,"∆Tm, Average (n=3)",PRDM9; [22],5.104 ⁰C
same,"∆Tm, replicates",PRDM9; [22],5.051 ⁰C and 5.067 ⁰C and 5.196 ⁰C

# — article PMC6917776, “Discovery of a chemical probe for PRDM9” (Nature Communications, 2019)
